Source: the supplement of paper PMC4862054

Experiments:
Conditions in all cases: incubation time: 72 h
[1] = system: MCF-10A; test: normalised response (% of control), CellTiter-Glo; higher = more viable cells (100 = DMSO, 0 = benzethonium chloride kill control)
Summary of the method: (§1)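 After 72 h with compound in 384-well plates, breast cancer cell lines seeded as 20 µl suspension were read for CellTox Green fluorescence at 485/520 nm. CellTiter-Glo luminescence was then read after 10 min at room temperature. Compound was present at 5 concentrations in 10-fold steps over a 10,000-fold range set per compound, and plates were normalised to 0.1 % DMSO (100) and a positive kill control (0). Values are normalised signals, each at a single concentration.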

[2] = system: BT-549; test: as above
Summary of the method: as §1

[3] = system: SK-BR-3; test: as above
Summary of the method: as §1

[4] = system: HCC1937; test: as above
Summary of the method: as §1

[5] = system: CAL-85-1; test: as above
Summary of the method: as §1

[6] = system: DU-4475; test: as above
Summary of the method: as §1

[7] = system: CAL-120; test: as above
Summary of the method: as §1

[8] = system: Hs578T; test: as above
Summary of the method: as §1

[9] = system: CAL-51; test: as above
Summary of the method: as §1

[10] = system: MDA-MB-231; test: as above
Summary of the method: as §1

[11] = system: MFM-223; test: as above
Summary of the method: as §1

[12] = system: MDA-MB-453; test: as above
Summary of the method: as §1

[13] = system: CAL-148; test: as above
Summary of the method: as §1

[14] = system: MDA-MB-436; test: as above
Summary of the method: as §1

[15] = system: HCC1599; test: as above
Summary of the method: as §1

[16] = system: HDQ-P1; test: as above
Summary of the method: as §1

[17] = system: MDA-MB-468; test: as above
Summary of the method: as §1

[18] = system: BT-474; test: as above
Summary of the method: as §1

[19] = system: HCC1143; test: as above
Summary of the method: as §1

[20] = system: MCF-10A; test: normalised response (% of control), CellTox Green; higher = less cell death (100 = DMSO, 0 = benzethonium chloride kill control)
Summary of the method: as §1

[21] = system: BT-549; test: as above
Summary of the method: as §1

[22] = system: HCC1937; test: as above
Summary of the method: as §1

[23] = system: CAL-85-1; test: as above
Summary of the method: as §1

[24] = system: DU-4475; test: as above
Summary of the method: as §1

[25] = system: CAL-120; test: as above
Summary of the method: as §1

[26] = system: Hs578T; test: as above
Summary of the method: as §1

[27] = system: CAL-51; test: as above
Summary of the method: as §1

[28] = system: MDA-MB-231; test: as above
Summary of the method: as §1

[29] = system: MFM-223; test: as above
Summary of the method: as §1

[30] = system: MDA-MB-453; test: as above
Summary of the method: as §1

[31] = system: CAL-148; test: as above
Summary of the method: as §1

[32] = system: MDA-MB-436; test: as above
Summary of the method: as §1

[33] = system: HCC1599; test: as above
Summary of the method: as §1

[34] = system: HDQ-P1; test: as above
Summary of the method: as §1

[35] = system: MDA-MB-468; test: as above
Summary of the method: as §1

[36] = system: BT-474; test: as above
Summary of the method: as §1

[37] = system: HCC1143; test: as above
Summary of the method: as §1

| SMILES | normalised response [1] [%] | normalised response [2] [%] | normalised response [3] [%] | normalised response [4] [%] | normalised response [5] [%] | normalised response [6] [%] | normalised response [7] [%] | normalised response [8] [%] | normalised response [9] [%] | normalised response [10] [%] | normalised response [11] [%] | normalised response [12] [%] | normalised response [13] [%] | normalised response [14] [%] | normalised response [15] [%] | normalised response [16] [%] | normalised response [17] [%] | normalised response [18] [%] | normalised response [19] [%] | normalised response [20] [%] | normalised response [21] [%] | normalised response [22] [%] | normalised response [23] [%] | normalised response [24] [%] | normalised response [25] [%] | normalised response [26] [%] | normalised response [27] [%] | normalised response [28] [%] | normalised response [29] [%] | normalised response [30] [%] | normalised response [31] [%] | normalised response [32] [%] | normalised response [33] [%] | normalised response [34] [%] | normalised response [35] [%] | normalised response [36] [%] | normalised response [37] [%] |
| --- | --- | --- | --- | --- | --- | --- | --- | --- | --- | --- | --- | --- | --- | --- | --- | --- | --- | --- | --- | --- | --- | --- | --- | --- | --- | --- | --- | --- | --- | --- | --- | --- | --- | --- | --- | --- | --- |
| CO[C@H]1C[C@@H]2CC[C@@H](C)[C@@](O)(O2)C(=O)C(=O)N2CCCC[C@H]2C(=O)O[C@H]([C@H](C)C[C@@H]2CC[C@@H](OCCO)[C@H](OC)C2)CC(=O)[C@H](C)/C=C(\C)[C@@H](O)[C@@H](OC)C(=O)[C@H](C)C[C@H](C)/C=C/C=C/C=C/1C [Everolimus] (10 nM) | 79.2 | 64.9 | 53.7 | 69.7 | 67.1 | 68.2 | 64.9 | 71.9 | 61.6 | 85.7 | 62.6 | 55.2 | 51.9 | 77.8 | 88.8 | 78.7 | 52.1 | 80.7 | 62.6 | 106 | 51 | 114 | 109 | 96 | 101 | 85.6 | 97.5 | 103 | 71.1 | 104 | 88 | 81.7 | 91.6 | 105 | 178 | 99.8 | 109 |
| COc1ccccc1S(=O)(=O)Nc1ccc2c(c1)CN(C)C(=O)N2 [PFI-1] (1000 nM) | 98.6 | 76.9 | 103 | 90.9 | 87 | 97.7 | 91.3 | 85 | 87.7 | 89.2 | 97.8 | 91.1 | 107 | 93.9 | 86.7 | 91.9 | 95 | 89.8 | 94.1 | 105 | 111 | 91.9 | 121 | 107 | 111 | 98.2 | 116 | 105 | 87.8 | 121 | 103 | 115 | 110 | 109 | 140 | 98.7 | 95 |
| C/C(=C\c1csc(C)n1)[C@@H]1C[C@@H]2O[C@]2(C)CCC[C@H](C)[C@H](O)[C@@H](C)C(=O)C(C)(C)[C@@H](O)CC(=O)O1 [Patupilone] (100 nM) | 61.4 | 16.3 | 17.4 | 75.9 | 25.8 | 72.4 | 71.4 | 39.6 | 24.4 | 73 | 86.8 | 71.8 | 37.4 | 35.4 | 102 | 74.6 | 26.2 | 75.1 | 42.8 | 77.1 | 90.3 | 81.2 | 38.6 | 94.5 | 77.9 | 96.1 | 36.3 | 65.7 | 84.1 | 93.6 | 50.5 | 40.1 | 95.6 | 71.9 | -2.53 | 58.5 | 103 |
